Laboratory results taken from patent US20100267561A1, “HERBICIDAL PYRIDAZINONE DERIVATIVES” (priority 2007, published 2010).

Legend:
Assay in all cases: Test B pre-/postemergence plant response
Assay type in all cases: in vivo
[1] = test system: wheat (Triticum aestivum)
How it was run: (§1)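 Preemergence and postemergence (plants 2-18 cm, 1- to 4-leaf stage) applications used test chemicals in a non-phytotoxic solvent with surfactant. Plants were held in a greenhouse 13 to 15 days, then rated visually against controls on a 0-100 scale (0 no effect, 100 complete control).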

soybean (Glycine max) = test system: soybean (Glycine max)
How it was run: as §1

[2] = test system: velvetleaf (Abutilon theophrasti)
How it was run: as §1

[3] = test system: goosegrass (Eleusine indica)
How it was run: as §1

[4] = test system: Russian thistle (Salsola iberica); details: Preemergence; for Russian Thistle plant response rating: scale 0 to 100
How it was run: as §1

[5] = test system: pigweed (Amaranthus retroflexus)
How it was run: as §1

[6] = test system: woolly cupgrass (Eriochloa villosa)
How it was run: as §1

[7] = test system: large crabgrass (Digitaria sanguinalis)
How it was run: as §1

[8] = test system: downy bromegrass (Bromus tectorum); details: for Bromegrass, Downy plant response rating: 8 g ai/ha
How it was run: as §1

[9] = test system: common (oilseed) sunflower (Helianthus annuus); details: Preemergence; for Sunflower plant response rating: scale 0 to 100
How it was run: as §1

[10] = test system: cocklebur (Xanthium strumarium); details: for Cocklebur plant response rating: 8 g ai/ha
How it was run: as §1

[11] = test system: catchweed bedstraw (Galium aparine); details: Preemergence; for Galium plant response rating: scale 0 to 100
How it was run: as §1

[12] = test system: green foxtail (Setaria viridis)
How it was run: as §1

[13] = 8 g ai/ha, postemergence, 0-100 scale
[14] = 16 g ai/ha, postemergence, 0-100 scale
[15] = Postemergence, 31 g ai/ha, scale 0 to 100
[16] = Postemergence, 62 g ai/ha, scale 0 to 100, 0 no effect, 100 complete control
[17] = Preemergence, 31 g ai/ha, scale 0 to 100 (0 no effect, 100 complete control)
[18] = Preemergence, 62 g ai/ha, 0 to 100 scale, 0 no effect, 100 complete control
[19] = Preemergence, 16 g ai/ha, scale 0 to 100
[20] = Preemergence, 8 g ai/ha, scale 0 to 100
[21] = 31 g ai/ha, scale 0 to 100 (0 no effect, 100 complete control)
[22] = 62 g ai/ha, 0 to 100 scale, 0 no effect, 100 complete control
[23] = Postemergence, 16 g ai/ha, scale 0 to 100
[24] = Preemergence, 16 g ai/ha, scale 0 to 100 (0 no effect, 100 complete control)

CCc1cc(-c2ccc(Br)cc2)nn1-c1c(O)c(C)nn(C)c1=O [Compound 74]
Wheat plant response rating [1, 13]: 40 | Wheat plant response rating [1, 14]: 70 | Plant response rating, Wheat [1, 15]: 90 | Plant response rating, Wheat [1, 16]: 95 | Plant response rating, Wheat [1, 17]: 25 | Plant response rating, Wheat [1, 18]: 85 | Wheat plant response rating [1, 19]: 0 | Soybean plant response rating (soybean (Glycine max); [13]): 0 | Soybean plant response rating (soybean (Glycine max); [14]): 0 | Plant response rating, Soybean (soybean (Glycine max); [15]): 0 | Plant response rating, Soybean (soybean (Glycine max); [16]): 0 | Plant response rating, Soybean (soybean (Glycine max); [17]): 0 | Plant response rating, Soybean (soybean (Glycine max); [18]): 0 | Soybean plant response rating (soybean (Glycine max); [20]): 0 | Soybean plant response rating (soybean (Glycine max); [19]): 0 | Velvetleaf plant response rating [2, 13]: 0 | Velvetleaf plant response rating [2, 14]: 0 | Plant response rating, Velvetleaf [2, 15]: 0 | Plant response rating, Velvetleaf [2, 16]: 0 | Plant response rating, Velvetleaf [2, 17]: 0 | Plant response rating, Velvetleaf [2, 18]: 0 | Velvetleaf plant response rating [2, 20]: 0 | Velvetleaf plant response rating [2, 19]: 0 | Goosegrass plant response rating [3, 13]: 60 | Goosegrass plant response rating [3, 14]: 65 | Plant response rating, Goosegrass [3, 15]: 75 | Plant response rating, Goosegrass [3, 16]: 85 | Plant response rating, Goosegrass [3, 17]: 100 | Plant response rating, Goosegrass [3, 18]: 100 | Goosegrass plant response rating [3, 20]: 95 | Goosegrass plant response rating [3, 19]: 98 | Plant response rating, Russian Thistle [4, 21]: 0 | Plant response rating, Russian Thistle [4, 22]: 0 | Russian Thistle plant response rating ([4]; 8 g ai/ha): 0 | Russian Thistle plant response rating ([4]; 16 g ai/ha): 0 | Pigweed plant response rating [5, 13]: 0 | Pigweed plant response rating [5, 14]: 0 | Plant response rating, Pigweed [5, 15]: 0 | Plant response rating, Pigweed [5, 16]: 0 | Plant response rating, Pigweed [5, 17]: 0 | Plant response rating, Pigweed [5, 18]: 20 | Pigweed plant response rating [5, 20]: 0 | Pigweed plant response rating [5, 19]: 0 | Cupgrass, Woolly plant response rating [6, 13]: 85 | Plant response rating, Cupgrass, Woolly [6, 23]: 90 | Plant response rating, Cupgrass, Woolly [6, 15]: 90 | Plant response rating, Cupgrass, Woolly [6, 16]: 98 | Plant response rating, Cupgrass, Woolly [6, 17]: 98 | Plant response rating, Cupgrass, Woolly [6, 18]: 100 | Cupgrass, Woolly plant response rating [6, 20]: 65 | Cupgrass, Woolly plant response rating [6, 19]: 95 | Crabgrass, Large plant response rating [7, 13]: 80 | Plant response rating, Crabgrass, Large [7, 23]: 90 | Plant response rating, Crabgrass, Large [7, 15]: 98 | Plant response rating, Crabgrass, Large [7, 16]: 100 | Plant response rating, Crabgrass, Large [7, 17]: 100 | Plant response rating, Crabgrass, Large [7, 18]: 100 | Crabgrass, Large plant response rating [7, 20]: 65 | Crabgrass, Large plant response rating [7, 19]: 95 | Bromegrass, Downy plant response rating ([8]; postemergence, 0-100 scale): 10 | Plant response rating, Bromegrass, Downy [8, 23]: 40 | Plant response rating, Bromegrass, Downy [8, 15]: 50 | Plant response rating, Bromegrass, Downy [8, 16]: 60 | Plant response rating, Bromegrass, Downy [8, 24]: 85 | Plant response rating, Bromegrass, Downy [8, 17]: 85 | Plant response rating, Bromegrass, Downy [8, 18]: 85 | Bromegrass, Downy plant response rating ([8]; Preemergence, scale 0 to 100): 30 | Plant response rating, Sunflower [9, 21]: 0 | Plant response rating, Sunflower [9, 22]: 0 | Sunflower plant response rating ([9]; 8 g ai/ha): 0 | Sunflower plant response rating ([9]; 16 g ai/ha): 0 | Cocklebur plant response rating ([10]; postemergence, 0-100 scale): 0 | Plant response rating, Cocklebur [10, 23]: 0 | Plant response rating, Cocklebur [10, 15]: 0 | Plant response rating, Cocklebur [10, 16]: 0 | Plant response rating, Cocklebur [10, 24]: 0 | Plant response rating, Cocklebur [10, 17]: 0 | Plant response rating, Cocklebur [10, 18]: 0 | Cocklebur plant response rating ([10]; Preemergence, scale 0 to 100): 0 | Plant response rating, Galium [11, 21]: 0 | Plant response rating, Galium [11, 22]: 0 | Galium plant response rating ([11]; 8 g ai/ha): 0 | Galium plant response rating ([11]; 16 g ai/ha): 0 | Foxtail, Green plant response rating [12, 13]: 85 | Plant response rating, Foxtail, Green [12, 23]: 95 | Plant response rating, Foxtail, Green [12, 15]: 98 | Plant response rating, Foxtail, Green [12, 16]: 100 | Plant response rating, Foxtail, Green [12, 17]: 100 | Plant response rating, Foxtail, Green [12, 18]: 100 | Foxtail, Green plant response rating [12, 20]: 100 | Foxtail, Green plant response rating [12, 19]: 100
